Results: the NIST ThermoML archive (doi:10.1016/j.tca.2015.02.004)
Several values for one entry are separate records, joined by “and”; a condition that tells them apart may be missing. Equal values may be shown once. ± gives the expanded uncertainty stated by the source.

What was measured:
[1] = Boiling temperature at pressure P; conditions: Liquid, Distillation
[2] = Liquid, Diaphragm manometer

C[Si](C)(C)c1ccccc1 [trimethylphenylsilane]
Conditions | Boiling temperature at pressure P [°C] | vapor or sublimation pressure [kPa]
[1], 1.866 kPa | 56.00 ± 2 | –
[2], 296.7 K | – | 0.33 ± 0.13
[2], 297.7 K | – | 0.29 ± 0.13
[2], 298.8 K | – | 0.31 ± 0.13
[2], 322.2 K | – | 1.14 ± 0.14
[2], 322.7 K | – | 1.28 ± 0.14
[2], 333.2 K | – | 2.02 ± 0.16
[2], 343.7 K | – | 3.24 ± 0.2
[2], 352.2 K | – | 4.73 ± 0.31
[2], 352.8 K | – | 4.91 ± 0.31
[2], 371.9 K | – | 10.63 ± 0.27
[2], 372.2 K | – | 11.04 ± 0.42
[2], 373.2 K | – | 10.82 ± 0.27
[2], 382.9 K | – | 15.75 ± 0.68
[2], 391 K | – | 21.76 ± 0.42
[2], 392.1 K | – | 21.75 ± 0.42
[2], 392.4 K | – | 22.02 ± 0.47
[2], 401.1 K | – | 29.35 ± 1

C[Si](C)(C)NCc1ccccc1 [(benzylamino)trimethylsilane]
Conditions | Boiling temperature at pressure P [°C]
[1], 2 kPa | 98.00 ± 2

C[Si](C)(C)Nc1ccccc1 [trimethyl(phenylamino)silane]
Conditions | Boiling temperature at pressure P [°C] | vapor or sublimation pressure [kPa]
[1], 0.4 kPa | 56.00 ± 7 | –
[2], 311.6 K | – | 0.2 ± 0.13
[2], 312.8 K | – | 0.24 ± 0.13
[2], 332.5 K | – | 0.65 ± 0.14
[2], 350.9 K | – | 1.64 ± 0.15
[2], 371.8 K | – | 3.76 ± 0.21
[2], 372.1 K | – | 3.79 ± 0.21
[2], 390 K | – | 7.38 ± 0.39
[2], 391.4 K | – | 7.86 ± 0.39
[2], 391.6 K | – | 7.85 ± 0.35
[2], 410.6 K | – | 14.88 ± 0.53
[2], 411.6 K | – | 15.98 ± 0.54
[2], 421.7 K | – | 21.19 ± 0.74
[2], 422.7 K | – | 22.43 ± 0.76
[2], 431.8 K | – | 28.53 ± 1.1
[2], 432.7 K | – | 30.61 ± 1.1
[2], 446.1 K | – | 43.07 ± 1.4
[2], 452.1 K | – | 52.87 ± 1.7
[2], 455.2 K | – | 55.6 ± 1.4

C[Si](C)(C)N(c1ccccc1)[Si](C)(C)C [N,N-bis(trimethylsilyl)aniline]
Conditions | Boiling temperature at pressure P [°C] | vapor or sublimation pressure
[1], 0.267 kPa | 60.00 ± 8 | –
[2], 321.8 K | – | 0.15 ± 0.13 kPa
[2], 322.1 K | – | 0.2 ± 0.13 kPa
[2], 330.7 K | – | 0.29 ± 0.13 kPa
[2], 331.2 K | – | 0.24 ± 0.13 kPa
[2], 331.4 K | – | 0.26 ± 0.13 kPa
[2], 341.9 K | – | 0.36 ± 0.13 kPa
[2], 351.2 K | – | 0.59 ± 0.13 kPa and 0.61 ± 0.13 kPa
[2], 351.4 K | – | 0.59 ± 0.13 kPa
[2], 361.1 K | – | 0.96 ± 0.14 kPa
[2], 361.2 K | – | 1 ± 0.14 kPa
[2], 371.2 K | – | 1.56 ± 0.15 kPa
[2], 380.7 K | – | 2.34 ± 0.17 kPa
[2], 381.2 K | – | 2.32 ± 0.17 kPa
[2], 390.9 K | – | 3.54 ± 0.21 kPa
[2], 400.5 K | – | 5.22 ± 0.26 kPa
[2], 400.7 K | – | 5.19 ± 0.26 kPa
[2], 400.9 K | – | 5.65 ± 0.26 kPa
[2], 410.7 K | – | 7.51 ± 0.32 kPa
[2], 411 K | – | 7.35 ± 0.32 kPa
[2], 421.4 K | – | 10.96 ± 0.44 kPa
[2], 421.5 K | – | 10.91 ± 0.44 kPa
[2], 421.9 K | – | 10.9 ± 0.44 kPa
[2], 431.7 K | – | 15.13 ± 0.58 kPa
[2], 441.2 K | – | 20.51 ± 0.74 kPa
[2], 441.6 K | – | 20.37 ± 0.74 kPa
[2], 451.2 K | – | 27.3 ± 0.9 kPa

C[Si](C)(C)N[Si](C)(C)C [1,1,1,3,3,3-hexamethyldisilazane]
[2]
Conditions | vapor or sublimation pressure [kPa]
290.8 K | 1.51 ± 0.19
290.9 K | 1.54 ± 0.18
292 K | 1.68 ± 0.15
293.5 K | 1.73 ± 0.14
301.1 K | 2.71 ± 0.2
301.5 K | 2.68 ± 0.2
311.4 K | 4.25 ± 0.23
312.4 K | 4.36 ± 0.23
320.2 K | 5.93 ± 0.35
321.2 K | 6.6 ± 0.36
329.7 K | 9.72 ± 0.46
330.9 K | 10.21 ± 0.47
331.8 K | 10.3 ± 0.55
340.1 K | 14.79 ± 0.65
341.1 K | 15.35 ± 0.57
349.8 K | 20.68 ± 2
352.7 K | 23.41 ± 1
360.3 K | 30.3 ± 1.3
360.5 K | 31.34 ± 1.3
370 K | 42.85 ± 1.6
371.8 K | 45.32 ± 1.6
382.2 K | 59.76 ± 1.8
